One assay concerns P. aeruginosa PA14. Put plainly: Mouse burn and infection (BI) model, survival. The format is in vivo, mice. Particulars: for average survival after 5 days: IV tail vein 100 μl of 10 mM, four days prior to burn/infection, n=8-10, control 10% (FIG. 9); for final mice survival rate at 7 days post burn and infection: single IV injection at 6 hrs (100 μl 20 mM), control 10% (FIG. 24). As to the method: Burn wound infection in mice can be established by subcutaneous or topical administration of the bacteria to the sites of the burn. […] Six-week old CD-1 male mice were used.
To induce infection, the mice were placed under general anesthesia via intraperitonial injection of 40 mg/kg Pentobarbital, the ventral surface was shaved, and a central skin fold elevated was simultaneously compressed from both sides for 5 seconds using two 2×2 cm metal blocks preheated to 95-100° C., to produce a non-lethal 5-8% full thickness burn with negligible focal necrosis of the underlying muscle or damage to underlying visceral organs. IP saline was administered for fluid resuscitation for ≧5% total body surface burns: avoiding vital structures, saline was injected into the left lower quadrant of the abdominal area of the anesthetized animal post-burn. This burn procedure was followed by mid-eschar inoculation of 100 μL of bacterial suspension containing ˜5×10^5 CFU. The animals were returned to their cages and provided mouse chow and water ad libitum. Animals typically recover from the anesthesia within 20 minutes post-administration. Criteria used to evaluate anesthesia recovery are state of alertness, mobility, and reaction to surrounding stimuli. Mice were monitored twice a day for symptoms and deaths, with increased monitoring every 6-8 hours during the period of greatest potential for infection and clinical disease.
The mouse full-thickness skin thermal injury infection model was used to test if 2AA restricts P, aeruginosa virulence. This model is predictable and reproducible; clinically relevant; and can lead to MODS and mortality. Briefly, a ˜15% total burn surface area (TBSA) thermal scalding injury is produced on the abdominal skin, leaving the underlying muscle intact, and the inoculum is delivered into the scald eschar. […]

Another assay relates to P. aeruginosa. Put plainly: P. aeruginosa growth kinetics (spectrophotometric analysis at 600 nm). As to conditions: for bacterial growth (PA14): FIG. 23B. It is filed as cell-based, Pseudomonas aeruginosa. From the text:
P. aeruginosa strains include wild-type (PA14, see Rahme et al., Science 268:1899-1902, 1995); a PA14 mvfR mutant (Cao et al., Proc. Natl. Acad. Sci. USA 98:14613-14618, 2001); a pqsE deletion mutant, generated via pEX18Ap allelic replacement by using sucrose selection (Hoang et al., Gene 212:77-86, 1998), resulting in a 570-bp nonpolar deletion covering 65% of the sequence (Déziel et al. PNAS); and the pqsA (U479) TnphoA mutant obtained from the PA14 Transposon Insertion Mutant Database. Bacteria were grown in LB broth or on 1.5% Bacto-agar (Difco) LB plates. Freshly plated cells served as inoculum.
P. aeruginosa was grown in the presence of 2 mM of 2′-aminoacetophenone (2AA), 3′-aminoacetophenone (3AA), 4′-aminoacetophenone (4AA), or 2′-nitroacetophenone (2NA), or in the absence of any of these compounds (control). Bacterial growth was followed over 26 hours by spectrophotometric analysis at 600 nm.
Bacterial growth was also followed over 35 hours by spectrophotometric analysis at 600 nm.

Another assay addresses T1, PqsA (Pseudomonas aeruginosa, UniProt Q9I4X3).
T1 construct: endogenous in cells; host or cells: P. aeruginosa PA14 cultures
Put plainly: Anthranilic acid accumulation and AA competition in PA14 cultures. It is filed as cell-based. As to conditions: for accumulation of anthranilic acid: PA14 culture with inhibitor vs control (FIG. 31). From the text: In P. aeruginosa anthranilic acid is also produced by the enzymatic systems PhnAB or TrpEG. […] This accumulation could be due to inhibition of PqsA or of any enzyme downstream in the HAQ biosynthesis. […] This reversal could only be explained by a competitive inhibition of an enzyme acting on AA. Because pqsA is the only enzyme of the pqsA-E operon to present similarities with enzymes involved in the activation of aromatic acid group, like the one found in anthranilic acid, we conclude that these inhibitors act on PqsA in a competitive manner with its substrate AA.

The test system of the next assay is pyocyanin production. Put plainly: Pyocyanin production. It is filed as cell-based, Pseudomonas aeruginosa.
Assay [1] has as its system 4-hydroxy-2-alkylquinoline (HAQ) production. It is filed as cell-based, Pseudomonas aeruginosa.
Assay [2] has as its system pqsA-LacZ (MvfR-dependent pqs operon transcription). Put plainly: pqsA-LacZ expression (β-galactosidase activity). The format is cell-based, Pseudomonas aeruginosa. Particulars: PA14 pqsH/pqsA double mutant, compound added at OD600 1.0 (FIG. 19). The method, then: To assess the effect of this compound on bacteria, we analyzed the production of HAQs in the presence of 2AA using LC/MS. The bacteria were propagated in the presence of 3 mM 2AA, culture media was collected at different time points, and the HHQ, PQS and HQNO production was measured in the supernatant. […] Since 2AA addition to the P. aeruginosa culture inhibits the production of HHQ and PQS, we assessed the transcription from the pqs operon using a pqsA-LacZ fusion.
To further, understand the mechanism of inhibition of the pqs operon by 2AA, we carried out competition assays of PQS and HHQ with 2AA. The expression of pqsA-LacZ in pqsApqsH double mutants was assessed. Bacteria were grown to an OD600 of 1.0 and HHQ and PQS were added either alone or with 2AA. LacZ expression was assayed at different stages of the growth, using standard protocols.
To determine whether HHQ activates MvfR expression, we generated a PA14pqsH/pqsA double mutant that lacks all HAQ production, and assessed pqsA-lacZ activity in the absence and presence of HHQ and PQS.

The next assay has as its target T2, MvfR (Pseudomonas aeruginosa, UniProt Q9I4X0).
T2 construct: made in house; host or cells: E. coli (cell lysate, not purified)
Description: MvfR binding to radiolabeled pqsA promoter DNA fragment (gel shift). Particulars: 40 pM ligand, E. coli cell lysate containing MvfR (FIGS. 20A, 20B). The method, then: FIGS. 20A and 20B show binding of MvfR to the pqsA promoter. FIG. 20A is a gel showing that MvfR binds to the pqsA promoter in the absence of HHQ or PQS, but that binding is increased in the presence of HHQ or PQS. A ^32P-labeled 174-bp DNA fragment containing the pqsA promoter region was mixed with E. coli cell lysate containing MvfR minus ligand (lanes 2-3); plus 40 pM HHQ (lanes 4-5); or plus 40 pM PQS (lanes 6-7). Protein added per reaction: lane 1, 0 ng/μl; lanes 2, 4, and 6, 30 ng/μl; and lanes 3, 5, and 7, 60 ng/μl. HHQ and PQS were added at the final concentration of 40 pM. Reaction mixtures were electrophoresed on 5% non-denatured polyacrylamide gels. FIG. 20B is a graph showing the densitometry of shifted bands.
To determine if HHQ potentiates MvfR DNA-binding, a 174-bp radiolabeled pqsA promoter region DNA fragment containing the potential LysR-box sequence was mixed with E. coli cell lysate containing MvfR.

Setting [3] is: 2 mM compound, followed over 26 hours at 600 nm (FIG. 4).

Here are results for eleven compounds from patent publication US20130209515A1, “ANTI-INFECTIVE AND IMMUNOMODULATORY COMPOUNDS” (priority 2005, published 2013).

Each structure is given as a SMILES string. “Also recorded” adds a separate entry of the source.

T1 sequence (Q9I4X3 whole entry): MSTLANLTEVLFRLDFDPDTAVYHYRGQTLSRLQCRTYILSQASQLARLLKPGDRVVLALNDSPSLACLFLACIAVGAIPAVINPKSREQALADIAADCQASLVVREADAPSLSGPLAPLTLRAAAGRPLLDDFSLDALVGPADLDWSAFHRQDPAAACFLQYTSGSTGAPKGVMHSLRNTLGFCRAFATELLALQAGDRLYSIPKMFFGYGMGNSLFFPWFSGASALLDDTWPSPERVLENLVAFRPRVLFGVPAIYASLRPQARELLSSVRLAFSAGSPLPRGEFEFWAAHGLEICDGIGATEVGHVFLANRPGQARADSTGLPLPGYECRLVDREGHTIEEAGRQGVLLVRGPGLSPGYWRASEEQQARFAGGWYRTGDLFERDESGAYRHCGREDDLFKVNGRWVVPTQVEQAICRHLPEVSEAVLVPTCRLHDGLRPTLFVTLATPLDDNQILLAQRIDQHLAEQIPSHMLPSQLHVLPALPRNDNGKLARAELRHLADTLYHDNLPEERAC
T2 sequence (Q9I4X0 whole entry): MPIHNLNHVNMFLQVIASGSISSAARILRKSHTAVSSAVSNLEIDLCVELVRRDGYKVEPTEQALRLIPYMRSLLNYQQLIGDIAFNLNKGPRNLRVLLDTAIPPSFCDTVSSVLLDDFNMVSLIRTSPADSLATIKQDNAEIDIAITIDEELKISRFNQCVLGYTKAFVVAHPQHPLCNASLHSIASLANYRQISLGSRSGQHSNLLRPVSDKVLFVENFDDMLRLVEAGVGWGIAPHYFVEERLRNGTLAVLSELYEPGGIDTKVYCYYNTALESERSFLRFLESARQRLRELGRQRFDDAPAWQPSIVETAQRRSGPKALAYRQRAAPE

For `CC(=O)c1cccc(O)c1N` [2-amino-3 hydroxy acetophenone], the “protection (survival curves)” value in the assay on P. aeruginosa PA14 (10 mM solutions IV 4 days pre-BI (FIGS. 11A, 11B)) is “decreased protective efficacy versus 2AA”.
Regarding `CC(=O)c1ccccc1[N+](=O)[O-]` [2NA, 2′-nitroacetophenone], in the assay on P. aeruginosa PA14, the “average survival after 5 days” value was 50%. For the same compound, the Bacterial growth entry in the assay with P. aeruginosa (setting [3]) is reported as “only slightly retarded”.
The matching figures for `CC(=O)c1cccc(N)c1` [3AA, 3′-aminoacetophenone]: 50% and “only slightly retarded”.
As to `Nc1cc(Cl)ccc1C(=O)O` [4-CABA, 4-chloro-2-aminobenzoic acid], at PqsA, the “accumulation of anthranilic acid” value is on record as “transient accumulation”. Besides, the pyocyanin production entry in the assay on pyocyanin production is “without abrogating pyocyanin production”. Moreover, in assay [1], the “HAQ production / HAQs synthesis” value is on record as “completely halted”; the “inhibition of 4-hydroxy-2-alkylquinoline (HAQ) production” value (shortened to “inhibition … (HAQ) production”) was “potent inhibitors”; the “production of the principal members of the three main HAQ families (HHQ, HQNO, PQS)” value is given as “dramatically decreased”. For the same compound, the “final mice survival rate at 7 days post burn and infection” value in the assay on P. aeruginosa PA14 is recorded as approximately 50%. For the same compound, the Bacterial growth result in the assay with P. aeruginosa (1.5 mM compound, followed over 35 hours at 600 nm (FIG. 6)) was “only slightly retarded”. Also, the “bacterial growth (PA14)” value with P. aeruginosa is given as “without affecting bacterial growth”.
Consider `Nc1cc(F)ccc1C(=O)O` [4-FABA, 4-fluoro-2-aminobenzoic acid], for which, in assay [1], the “inhibition … (HAQ) production” value is “potent inhibitors”.
On to `CC(=O)c1ccc(N)cc1` [4AA, 4′-aminoacetophenone], for which the “average survival after 5 days” value with P. aeruginosa PA14 is given as 50%. Besides, the Bacterial growth entry with P. aeruginosa (setting [3]) was “only slightly retarded”.
`Nc1ccc(F)cc1C(=O)O` [5-FABA, 5-fluoro-2-aminobenzoic acid]: in assay [1], the “HAQ production / HAQs synthesis” value is reported as “inhibited HAQ production” and the “inhibition … (HAQ) production” value is on record as “potent inhibitors”.
As to `Nc1cccc(Cl)c1C(=O)O` [6-CABA, 6-chloro-2-aminobenzoic acid], on PqsA, the “accumulation of anthranilic acid” value was “transient accumulation”. The “effect of increasing concentrations of AA on inhibition of HAQ production” value on PqsA (culture containing 1.5 mM inhibitor (FIG. 32)) is “reversed the inhibition”. The pyocyanin production entry with pyocyanin production is “without abrogating pyocyanin production”. Moreover, in assay [1], the “HAQ production / HAQs synthesis” value is “inhibited HAQ production; also recorded: completely halted”; the “inhibition … (HAQ) production” value is on record as “potent inhibitors”; the “production of the principal members of the three main HAQ families (HHQ, HQNO, PQS)” value is on record as “dramatically decreased”. Also, in the assay with P. aeruginosa PA14, the “final mice survival rate at 7 days post burn and infection” value is approximately 40%. In the assay on P. aeruginosa, the “bacterial growth (PA14)” value is listed as “without affecting bacterial growth; also recorded: does not inhibit PA14 growth”.
`CCCCCCCc1cc(O)c2ccccc2n1` [HHQ, 4-hydroxy-2-heptylquinoline, reference compound]: the “MvfR-dependent pqsA-lacZ activity” value in assay [2] is “induce MvfR-dependent pqsA-lacZ activity”. At MvfR, the MvfR-pqsA promoter binding entry was “potentiate MvfR-pqsA promoter binding, with weaker activity seen with HHQ versus PQS”.
`COC(=O)c1ccccc1N` [MA, methyl anthranilate, reference compound]: in assay [1], the PQS production result is reported as “prevents PQS production”, the “levels of HAQs” value is recorded as “reduces the levels of several HAQs” and the “production of N-oxides” value is recorded as “production of N-oxides at very high concentrations”. Also, the PA14 growth result in the assay on P. aeruginosa (methylanthranilate (FIG. 25B)) was “inhibits PA14 growth”.
As for `CCCCCCCc1nc2ccccc2c(O)c1O` [PQS, 3,4-dihydroxy-2-heptylquinoline, reference compound], the “MvfR-dependent pqsA-lacZ activity” value in assay [2] is “induce MvfR-dependent pqsA-lacZ activity”. The MvfR-pqsA promoter binding entry at MvfR was “potentiate MvfR-pqsA promoter binding”.
